The Deep4Chem optical property database
“And” between values parts separate entries of the source, which are not always exact repeats. Equal entries are not always repeated.

Test: solvent given as SMILES
[1] = in O=P(c1ccccc1)(c1ccccc1)c1ccccc1Oc1ccccc1P(=O)(c1ccccc1)c1ccccc1

COc1ccc(/C=C/C2=CC(/C=C/c3ccc(OC)c4ccccc34)=[O+][B-](F)(F)O2)c2ccccc12
fluorescence lifetime (in CC#N): 0.65 ns | fluorescence lifetime (in CC(C)=O): 1.03 ns | fluorescence lifetime (in CCOC(C)=O): 1.51 ns | fluorescence lifetime (in CCOCC): 1.34 ns | fluorescence lifetime (in ClC(Cl)(Cl)Cl): 1.18 ns | fluorescence lifetime (in ClCCl): 1.96 ns

COc1ccc2ccc([O-])cc2c1
fluorescence lifetime (in O): 4 ns

COc1ccc(-c2c3ccc([nH]3)c3nc(c(-c4ccc([N+](=O)[O-])cc4)c4ccc([nH]4)c4ccc([nH]4)c(-c4ccc(OC)cc4)c4ccc2o4)C=C3)cc1
fluorescence lifetime (in C1CCOC1): 0.66 ns | fluorescence lifetime (in Cc1ccccc1): 4.33 ns | fluorescence lifetime (in c1ccccc1): 4.2 ns

CN(C)c1ccc2nc(-c3ccccc3)sc2c1Cl
fluorescence lifetime (in C1CCCCC1): 0.1 ns

COc1cc2c(cc1-c1cccs1)Cc1c3c(c4c(c1-2)-c1cc(OC)c(-c2cccs2)cc1C4)C(=O)N(CCC(C)C)C3=O
fluorescence lifetime (in C1CCOC1): 3.18 ns

Cn1c(-c2ccc(-c3nc(-c4ccccc4)c(-c4ccccc4)n3C)cc2)nc(-c2ccccc2)c1-c1ccccc1
fluorescence lifetime (in CC#N): 1.24 ns and 1.1 ns

CCC1(CC)c2cc(B(c3c(C)cc(C)cc3C)c3c(C)cc(C)cc3C)ccc2-c2c1c1c(c3c2C(CC)(CC)c2cc(N(c4ccccc4)c4ccccc4)ccc2-3)C(CC)(CC)c2cc(B(c3c(C)cc(C)cc3C)c3c(C)cc(C)cc3C)ccc2-1
fluorescence lifetime (in C1CCOC1): 18.1 ns

C[n+]1ccc2c(ccc3c[n+](C)ccc32)c1
fluorescence lifetime (in CC#N): 6.6 ns

Cn1c(=O)cc(C(=O)c2ccccc2)c2sc(-c3ccc(N(c4ccccc4)c4ccccc4)cc3)cc21
fluorescence lifetime (in ClCCl): 0.99 ns

COc1c2ccccc2c(OC)c2c1c1cc(F)ccc1n2C
fluorescence lifetime (in C1CCCCC1): 25 ns | fluorescence lifetime (in CC#N): 25.3 ns | fluorescence lifetime (in CO): 26.7 ns | fluorescence lifetime (in ClCCl): 23.2 ns

N#Cc1cc(C#N)cc(-n2c3ccccc3c3cc(-c4ccc5c(c4)c4ccccc4n5-c4cc(C#N)cc(C#N)c4)ccc32)c1
fluorescence lifetime (in Cc1ccccc1): 24 ns

Cc1ccc2c(c1)C(c1ccccc1)(c1ccccc1)c1cc(C)ccc1N2c1cc(C(C)C)c(B2c3ccccc3Sc3ccccc32)c(C(C)C)c1
fluorescence lifetime (in Cc1ccccc1): 47 ns | fluorescence lifetime (in O=P(c1ccccc1)(c1ccccc1)c1ccc2oc3ccc(P(=O)(c4ccccc4)c4ccccc4)cc3c2c1): 21 ns

N#Cc1cccc(C#N)c1-n1c2ccccc2c2cc(-c3ccc4c(c3)c3ccccc3n4-c3c(C#N)cccc3C#N)ccc21
fluorescence lifetime (in Cc1ccccc1): 28 ns

COC(=O)c1[nH]c(-c2ccc(OC)cc2)c2nnc3ccc(OC)cc3c12
fluorescence lifetime (in ClCCl): 6.1 ns

c1ccc(-c2nnc(-c3cc(-c4nnc(-c5ccccc5)o4)c(-n4c5ccccc5c5ccccc54)cc3-n3c4ccccc4c4ccccc43)o2)cc1
fluorescence lifetime (in Cc1ccccc1): 4.9 ns | fluorescence lifetime [1]: 8.6 ns

ClP1(Cl)=NP(Cl)(Cl)=NP(Cl)(Oc2ccc3ccc4cccc5ccc2c3c45)=N1 (configuration not stated)
fluorescence lifetime (in ClCCl): 3.29 ns

N#Cc1c(-n2c3ccccc3c3cc(Br)ccc32)c(-n2c3ccccc3c3cc(Br)ccc32)c(C#N)c(-n2c3ccccc3c3cc(Br)ccc32)c1-n1c2ccccc2c2cc(Br)ccc21
fluorescence lifetime (in Cc1ccccc1): 0.4 ns

CC1(C)CC(NCc2ccc3ccc4cccc5ccc2c3c45)CC(C)(C)N1
fluorescence lifetime (in C1CCCCC1): 61.8 ns | fluorescence lifetime (in CC#N): 26.2 ns | fluorescence lifetime (in CO): 41.9 ns | fluorescence lifetime (in ClC(Cl)Cl): 36.1 ns

Nc1ccc(N2C(=O)c3ccc4c5ccc6c7c(ccc(c8ccc(c3c48)C2=O)c75)C(=O)N(c2ccc(O)cc2)C6=O)cc1
fluorescence lifetime (in CN(C)C=O): 3.1 ns

c1ccc2c(-c3cncnc3)c3ccccc3c(-c3cncnc3)c2c1
fluorescence lifetime (in CCO): 6.4 ns | fluorescence lifetime (in ClCCl): 7.2 ns

CN(C)c1ccc2c(c1)C(C)(C)C(=O)C=C2
fluorescence lifetime (in O): 3.66 ns

COc1ccc(C2=C(c3ccc(-c4ccccc4)cc3)C(c3ccccc3)=[N+]3C2=Nc2c(-c4ccc(OC)cc4)c(-c4ccc(-c5ccccc5)cc4)c(-c4ccccc4)n2[B-]3(F)F)cc1
fluorescence lifetime (in Cc1ccccc1): 0.14 ns

Cc1cc(C)cc(NC(=O)c2sc(Br)nc2C)c1
fluorescence lifetime (in CO): 0.33 ns | fluorescence lifetime (in ClC(Cl)Cl): 0.18 ns

COc1ccc2cc(/C=C/C3=CC(c4ccccc4)=[O+][B-](F)(F)O3)ccc2c1
fluorescence lifetime (in ClCCl): 2.53 ns

CC(C)(C)NS(=O)(=O)c1ccc2c(c1)C(=O)/C(=C1\Sc3ccc(S(=O)(=O)NC(C)(C)C)cc3C1=O)S2
fluorescence lifetime (in C1COCCO1): 12.4 ns | fluorescence lifetime (in CN(C)C=O): 8.33 ns | fluorescence lifetime (in CS(C)=O): 0.07 ns

Cn1nc(-c2ccccc2)c2n[nH]nc2c1=O
fluorescence lifetime (in CC#N): 2 ns | fluorescence lifetime (in CCO): 1.9 ns | fluorescence lifetime (in Cc1ccccc1): 1.2 ns

Cc1cc(C)c(C2=C3C=CC=[N+]3[B-]3(F)Oc4cc(O)cc5c6ccc(C)cc6c6cc2n3c6c45)c(C)c1 (configuration not stated)
fluorescence lifetime (in ClC(Cl)Cl): 4 ns

CCN(CC)c1ccc(/C=N/Nc2ccc(C#N)cc2)c(O)c1
fluorescence lifetime (in CO): 1.63 ns

CCOC(=O)CCCCCn1c2ccc(OC)cc2c(=O)c2cc3c(cc21)c(=O)c1cc(OC)ccc1n3CCCCCC(=O)OCC
fluorescence lifetime (in CCO): 13.4 ns

Cc1c(-c2nc(-c3ccccc3)nc(-c3ccccc3)n2)ccc(-n2c3ccccc3c3cc4c(cc32)C2c3ccccc3C4c3ccccc32)c1C
fluorescence lifetime [1]: 10 ns

Cc1ccc(C2=C3C=CC4=[N+]3[P-](=O)(=O)n3c2ccc3-c2ccc([nH]2)/C(c2ccc(C)cc2)=c2/cc/c(o2)=C(\c2ccc(C)cc2)c2ccc4[nH]2)cc1
fluorescence lifetime (in ClC(Cl)Cl): 4.3 ns

COc1ccc(C2=C(c3ccc(OC)cc3)[Si](c3ccccc3)(c3ccccc3)c3ccccc32)cc1
fluorescence lifetime (in C1CCOC1): 1.37 ns

Cc1c(C(=O)c2ccccc2)c2ccc3cccc4c5cccc6ccc1c(c65)c2c34
fluorescence lifetime (in ClCCl): 2.37 ns

CCn1c2ccccc2c2cc(-c3cc(-c4ccc5c(c4)c4ccccc4n5CC)nc(C#N)n3)ccc21
fluorescence lifetime (in C1CCOC1): 2.57 ns

Cc1ccccc1C1=C2C=c3c(oc4ccc(C(C)(C)C)cc34)=[N+]2[B-](F)(F)n2c1cc1c3cc(C(C)(C)C)ccc3oc12
fluorescence lifetime (in C1CCCCC1): 4.11 ns | fluorescence lifetime (in CCOC(C)=O): 4.28 ns | fluorescence lifetime (in CO): 4.21 ns

CN(C)c1ccc(-c2nc3c(c4c2-c2ccccc2CC4)-c2ccccc2CC3)cc1
fluorescence lifetime (in C1CCOC1): 0.91 ns | fluorescence lifetime (in CC#N): 1.19 ns | fluorescence lifetime (in CCOC(C)=O): 0.75 ns | fluorescence lifetime (in CS(C)=O): 2.13 ns | fluorescence lifetime (in Cc1ccccc1): 0.27 ns | fluorescence lifetime (in ClCCl): 0.8 ns

CCn1c2ccccc2c2cc(C#Cc3cc(C#Cc4ccc5c(c4)c4ccccc4n5CC)ncn3)ccc21
fluorescence lifetime (in C1CCOC1): 2.32 ns

Cc1cc(C)c(B(c2cc3ccc4cccc5ccc(c2)c3c45)c2c(C)cc(C)cc2C)c(C)c1
fluorescence lifetime (in Cc1ccccc1): 49 ns

N#C/C(=C\c1ccc(C#N)cc1)c1nc(-c2ccccc2)c(-c2ccccc2)s1
fluorescence lifetime (in CC#N): 3.2 ns
